Among the data in patent publication US9868720B2 (Genentech, Inc., priority 2013, dated 2018) are Ki values, retold here.

Chain of DLK kinase (N-terminally GST-tagged DLK, catalytic domain amino acid 1-520) (Q12852 1-520): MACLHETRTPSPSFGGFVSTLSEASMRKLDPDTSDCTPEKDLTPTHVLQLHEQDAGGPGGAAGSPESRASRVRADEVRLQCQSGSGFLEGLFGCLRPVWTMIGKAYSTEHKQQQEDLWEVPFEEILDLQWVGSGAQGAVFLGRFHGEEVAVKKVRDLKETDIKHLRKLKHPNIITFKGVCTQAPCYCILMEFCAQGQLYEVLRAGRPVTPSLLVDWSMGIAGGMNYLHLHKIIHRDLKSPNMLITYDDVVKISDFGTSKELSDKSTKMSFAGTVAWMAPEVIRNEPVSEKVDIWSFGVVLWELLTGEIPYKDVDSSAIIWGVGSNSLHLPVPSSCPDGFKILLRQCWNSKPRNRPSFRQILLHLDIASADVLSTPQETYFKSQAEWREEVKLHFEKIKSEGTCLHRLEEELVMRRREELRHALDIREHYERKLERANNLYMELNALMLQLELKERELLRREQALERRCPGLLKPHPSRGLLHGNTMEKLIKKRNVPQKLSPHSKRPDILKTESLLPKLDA

The target of this experiment is DLK kinase (N-terminally GST-tagged DLK, catalytic domain amino acid 1-520) (Homo sapiens (Human), UniProt Q12852). The experiment can be described thus: DLK TR-FRET assay. Particulars: 30 μM ATP, MKK4 K131M substrate, read-out: DLK HTRF (Ki). It counts as biochemical. As to the method:
DLK TR-FRET assay: DLK kinase reactions (20 μL) containing 5 nM N-terminally GST-tagged DLK (catalytic domain amino acid 1-520) (Carna Bioscience), 40 nM N-terminally HIS-tagged MKK4 K131M substrate, and 30 μM ATP in kinase reaction buffer (50 mM HEPES, pH 7.5, 0.01% Triton X-100, 0.01% Bovine γ-Globulins, 2 mM DTT, 10 mM MgCl2 and 1 mM EGTA), and testing compound 1:3 serial diluted starting at 20 uM were incubated at ambient temperature for 60 minutes in 384 well OptiPlate (Perkin Elmer). To quench kinase reactions and detect phosphorylated MKK4, 15 μL of TR-FRET antibody mixture containing 2 nM anti-phosphorylated MKK4 labeled with Europium cryptate (Cisbio) and 23 nM anti-HIS labeled with D2 (Cisbio) in detection buffer (25 mM Tris pH 7.5, 100 mM NaCl, 100 mM EDTA, 0.01% Tween-20, and 200 mM KF) was added to the reaction mixture. The detection mixture was incubated for 3 hours at ambient temperature and the TR-FRET was detected with an EnVision multilabel plate reader (Perkin-Elmer) using the LANCE/DELFIA Dual Enh label from Perkin-Elmer (excitation filter: UV2 (TRF) 320 and emission filters: APC 665 and Europium 615).
(In TR-FRET formats the signal depends on donor and acceptor labels being close together.)
As usually defined, the Ki is the equilibrium dissociation constant of an inhibitor or competing ligand from its target. As to `CC1CC1C(=O)N1CCC(c2cc(Nc3cc(C(F)(F)F)ccn3)nc(N3CCC(F)(F)C3)n2)C1` (stereo not shown) [Example 180], the Ki was 46.2 nM.

Turning to `Cc1nc(Nc2cc(C(N)=O)ccn2)cc(C2CCCN(C(=O)c3ccccc3)C2)n1` (stereo not shown) [Example 8], the Ki came to 795 nM.

For the compound `COc1ccnc(Nc2cc(C3CCNCC3)nc(N3CCCC3C)n2)c1` (stereo not shown) [Example 125, (4-Methoxy-pyridin-2-yl)-[2-(2-methyl-pyrrolidin-1-yl)-6-piperidin-4-yl-pyrimidin-4-yl]-amine], the Ki is 15.2 nM.

As for `Cc1ccnc(Nc2cc(C3CCNCC3)nc(N3CCCC3)n2)c1` [Example 24, (4-Methyl-pyridin-2-yl)-(6-piperidin-4-yl-2-pyrrolidin-1-yl-pyrimidin-4-yl)-amine], the Ki is 20.5 nM.

On to `CN1CCC(c2cc(Nc3cc(C(F)(F)F)ccn3)nc(N3CC4CC3CO4)n2)C1` (stereo not shown) [Example 274, [6-(1-Methyl-pyrrolidin-3-yl)-2-(2-oxa-5-aza-bicyclo[2.2.1]hept-5-yl)-pyrimidin-4-yl]-(4-trifluoromethyl-pyridin-2-yl)-amine], for which the inhibition constant Ki came to 46.3 nM.

With `CC(C)c1nc(Nc2cc(C(F)(F)F)ccn2)cc(C2CCCN(C)C2)n1` (stereo not shown) [Example 145, [2-Isopropyl-6-(1-methyl-piperidin-3-yl)-pyrimidin-4-yl]-(4-trifluoro-methyl-pyridin-2-yl)-amine], the Ki amounted to 141 nM.

For `C[C@@H]1CCCN1c1nc(Nc2cc(C(F)(F)F)ccn2)cc(C2(C#N)CCOCC2)n1` [Example 209, 4-[2-((R)-2-Methyl-pyrrolidin-1-yl)-6-(4-trifluoromethyl-pyridin-2-ylamino)-pyrimidin-4-yl]-tetrahydro-pyran-4-carbonitrile], the Ki is 76.8 nM.

`C[C@@H]1CCCN1c1nc(Nc2cc(C(F)(F)F)ccn2)cc(C2CCNCC2)n1` [Example 111, [2-((R)-2-Methyl-pyrrolidin-1-yl)-6-piperidin-4-yl-pyrimidin-4-yl]-(4-trifluoromethyl-pyridin-2-yl)-amine]: the Ki came out at 0.85 nM.

Regarding `Cc1ccnc(Nc2cc(C3CCCN(Cc4cn(C)nc4C)C3)nc(C)n2)c1` (stereo not shown) [Example 38, {6-[1-(1,3-Dimethyl-1H-pyrazol-4-ylmethyl)-piperidin-3-yl]-2-methyl-pyrimidin-4-yl}-(4-methyl-pyridin-2-yl)-amine], the Ki was over 2100 nM.

For the compound `Cc1nc(Nc2cc(C(F)(F)F)ccn2)cc(C2CCCN(C(=O)c3ccc(F)cc3Cl)C2)n1` (stereo not shown), the Ki is 52.1 nM.

`Cn1cc(-c2nc(Nc3cc(C(F)(F)F)ccn3)cc(C3CCN(CC4CCOCC4)C3)n2)cn1` (stereo not shown) [Example 423, {2-(1-Methyl-1H-pyrazol-4-yl)-6-[1-(tetrahydro-pyran-4-ylmethyl)-pyrrolidin-3-yl]-pyrimidin-4-yl}-(4-trifluoromethyl-pyridin-2-yl)-amine]: the Ki is 5.21 nM.

As for `CN(CCO)c1nc(Nc2cc(C(F)(F)F)ccn2)cc(C2CCNC2)n1` (stereo not shown) [Example 47, 2-{Methyl-[4-pyrrolidin-3-yl-6-(4-trifluoromethyl-pyridin-2-ylamino)-pyrimidin-2-yl]-amino}-ethanol], the Ki was found to be 12.6 nM.

As for `COc1cc(C)ccc1C(=O)N1CCCC(c2cc(Nc3cc(C)ccn3)nc(N3CCCC3C)n2)C1` (stereo not shown) [Example 425, (2-Methoxy-4-methyl-phenyl)-{3-[6-(4-methyl-pyridin-2-ylamino)-2-(2-methyl-pyrrolidin-1-yl)-pyrimidin-4-yl]-piperidin-1-yl}-methanone], the Ki is 0.17 nM.

For the compound `O=C(C1CCCO1)N1CCC(c2cc(Nc3cc(C(F)(F)F)ccn3)nc(N3CC(F)(F)C3)n2)C1` (stereo not shown) [Example 265, {3-[2-(3,3-Difluoro-azetidin-1-yl)-6-(4-trifluoro-methyl-pyridin-2-ylamino)-pyrimidin-4-yl]-pyrrolidin-1-yl}-(tetrahydro-furan-2-yl)-methanone], the Ki was 159 nM.

As to `CC(C)c1nc(Nc2cc(C(F)(F)F)ccn2)cc(C2CN(C3COC3)C2)n1` [Example 399, [2-Isopropyl-6-(1-oxetan 3-yl-azetidin-3-yl)-pyrimidin-4-yl]-(4-trifluoromethyl-pyridin-2-yl)-amine], the Ki was determined as 281 nM.

Consider `FC(F)(F)c1ccnc(Nc2cc(C3CCOCC3)nc(N3CCn4ccnc4C3)n2)c1` [Example 253, [2-(5,6-Dihydro-8H-imidazo[1,2-a]pyrazin-7-yl)-6-(tetrahydro-pyran-4-yl)-pyrimidin-4-yl]-(4-trifluoromethyl-pyridin-2-yl)-amine], for which the Ki was 87.7 nM.

`Cn1nccc1-c1nc(Nc2cc(C(F)(F)F)ccn2)cc(C2CCN(CC3CCOCC3)C2)n1` (stereo not shown) [Example 388, {2-(2-Methyl-2H-pyrazol-3-yl)-6-[1-(tetrahydro-pyran-4-ylmethyl)-pyrrolidin-3-yl]-pyrimidin-4-yl]-(4-trifluoromethyl-pyridin-2-yl)-amine]: the Ki was 8.75 nM.

For `CC1CCCN1c1nc(Nc2cc(C(F)(F)F)ccn2)cc(C2CCNC(=O)C2)n1` (stereo not shown) [Example 412, 4-[2-(2-Methyl-pyrrolidin-1-yl)-6-(4-trifluoromethyl-pyridin-2-ylamino)-pyrimidin-4-yl]-piperidin-2-one], the Ki stood at 47.5 nM.

Turning to `FC1(F)CCN(c2nc(Nc3cc(C(F)(F)F)ccn3)cc(C3CCN(Cc4cn[nH]c4)C3)n2)C1` (stereo not shown) [Example 404, {2-(3,3-Difluoro-pyrrolidin-1-yl)-6-[1-(1H-pyrazol-4-ylmethyl)-pyrrolidin-3-yl]-pyrimidin-4-yl}-(4-trifluoromethyl-pyridin-2-yl)-amine], the Ki was 4.92 nM.

For the compound `FC(F)(F)c1ccnc(Nc2cc(C3CCOCC3)nc(N3CCc4nc[nH]c4C3)n2)c1` [Example 252, [2-(3,4,6,7-Tetrahydro-imidazo[4,5-c]pyridin-5-yl)-6-(tetrahydro-pyran-4-yl)-pyrimidin-4-yl]-(4-trifluoromethyl-pyridin-2-yl)-amine], the Ki came to 43.5 nM.

As to `C[C@@H]1CCCN1c1nc(Nc2cc(C(F)(F)F)ccn2)cc(C2CCN(C)CC2)n1` [Example 169, [6-(1-Methyl-piperidin-4-yl)-2-((R)-2-methyl-pyrrolidin-1-yl)-pyrimidin-4-yl]-(4-trifluoromethyl-pyridin-2-yl)-amine], the Ki came to 0.4 nM.

With `FC(F)(F)c1ccnc(Nc2cc(C3CCOCC3)nc(N3CC4(COC4)C3)n2)c1` [Example 218, [2-(2-Oxa-6-aza-spiro-[3.3]hept-6-yl)-6-(tetrahydro-pyran-4-yl)-pyrimidin-4-yl]-(4-trifluoromethyl-pyridin-2-yl)-amine], the Ki is 288 nM.

With `COc1cc(C)ccc1C(=O)N1CCCC(c2cc(Nc3cc(C)ccn3)nc(N3CCC(F)(F)C3)n2)C1` (stereo not shown) [Example 426, {3-[2-(3,3-Difluoro-pyrrolidin-1-yl)-6-(4-methyl-pyridin-2-ylamino)-pyrimidin-4-yl]-piperidin-1-yl}-(2-methoxy-4-methyl-phenyl)-methanone], the Ki was determined as 0.5 nM.

With `CC(=O)N1CCCC(c2cc(Nc3cc(C)ccn3)nc(-c3ccccc3)n2)C1` (stereo not shown) [Example 106, 1-{3-[6-(4-Methyl-pyridin-2-ylamino)-2-phenyl-pyrimidin-4-yl]-piperidin-1-yl}-ethanone], the Ki is 30.7 nM.

Regarding `CC(=O)N1CCC(c2cc(Nc3cc(C)ccn3)nc(N3CCCCC3)n2)C1` (stereo not shown) [Example 90, 1-{3-[6-(4-Methyl-pyridin-2-ylamino)-2-piperidin-1-yl-pyrimidin-4-yl]-pyrrolidin-1-yl}-ethanone], the Ki was found to be 104 nM.
